The record followed here is patent EP4793271A1, “NEUROPROTECTIVE AGENT” (National Center of Neurology and Psychiatry, priority 2023, dated 2025).

Broadly, the AUC(0-inf) is the area under the concentration-time curve extrapolated to infinity. A word on the AUC(0-t): it is the area under the concentration-time curve up to a stated or last time point. Broadly, the half-life is the time in which the quantity being followed falls by half. High values mean slow decline, low ones rapid decline. As a reminder, the Cmax is the peak of the concentration-time curve. As a reminder, the Tmax is the time from dosing to the highest level.

The target in data set [1] is T1, nicotinamide phosphoribosyl transferase (NAMPT) (Homo sapiens, UniProt P43490).
T1 construct: purchased Medical & Biological Laboratories Co., Ltd. (MBL)
T1 sequence (P43490 whole entry, species assumed): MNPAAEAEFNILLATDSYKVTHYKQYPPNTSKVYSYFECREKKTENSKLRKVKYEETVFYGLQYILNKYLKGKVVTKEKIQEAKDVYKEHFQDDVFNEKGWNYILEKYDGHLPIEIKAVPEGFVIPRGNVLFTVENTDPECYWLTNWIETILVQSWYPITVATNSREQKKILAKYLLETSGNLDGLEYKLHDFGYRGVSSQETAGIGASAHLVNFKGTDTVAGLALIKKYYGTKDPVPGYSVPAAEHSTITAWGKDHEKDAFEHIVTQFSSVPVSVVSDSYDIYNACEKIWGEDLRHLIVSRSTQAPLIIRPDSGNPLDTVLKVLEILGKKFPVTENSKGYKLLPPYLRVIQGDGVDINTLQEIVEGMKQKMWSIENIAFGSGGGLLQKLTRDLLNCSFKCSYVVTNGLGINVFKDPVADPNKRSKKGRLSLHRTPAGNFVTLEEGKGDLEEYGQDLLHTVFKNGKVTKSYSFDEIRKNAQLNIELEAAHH
As to the kind of experiment: NAMPT activity measurement (NMN fluorescence detection). The data set is classed as biochemical. The note with it: NAMPT recombinant protein; 10 µM Nam. The method in brief:
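Recombinant NAMPT reacted with 10 µM Nam, 0.5 µM PRPP, 2 µM ATP in Tris pH 7.4 buffer with MgCl2, DTT, BSA; product NMN quantified by fluorescence (ex 421/em 480 nm) after derivatization with 2-acetylbenzofuran. Compounds at 3 nM–10 µM; control-normalized signal used for IC50.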

The nature of data set [2]: Pharmacokinetic evaluation after single iv and po administration to mice. The data set is classed as in vivo, C57BL/6J male mice. The note with it: for AUC(0-inf) / AUC(0-t) / C0 / half-life / clearance / Vd / Cmax / Tmax: male, C57BL/6J, mouse, plasma; for clearance: read-out: CLtot (converted); for Vd: read-out: Vss; for volume of distribution: result in words. As to the method: The concentrations of compound 35 and its metabolites in plasma were measured, and oral absorbability (bioavailability) was evaluated. Systemic clearance was calculated for the iv administration, and pharmacokinetic features were determined.
The concentrations of compound 76 and its metabolites in plasma were measured, and oral absorbability (bioavailability) was evaluated. Systemic clearance was calculated for the iv administration, and pharmacokinetic features were determined.
The concentration of compound 105 in plasma was measured, and oral absorbability (bioavailability: BA) was evaluated. A half-life, the volume of distribution in a stationary state, and systemic clearance, and the like were calculated for the iv administration, and pharmacokinetic features were determined.

For another data set, the target named is T2, hSARM1 (Homo sapiens, UniProt Q6SZW1).
T2 sequence (Q6SZW1 28-724): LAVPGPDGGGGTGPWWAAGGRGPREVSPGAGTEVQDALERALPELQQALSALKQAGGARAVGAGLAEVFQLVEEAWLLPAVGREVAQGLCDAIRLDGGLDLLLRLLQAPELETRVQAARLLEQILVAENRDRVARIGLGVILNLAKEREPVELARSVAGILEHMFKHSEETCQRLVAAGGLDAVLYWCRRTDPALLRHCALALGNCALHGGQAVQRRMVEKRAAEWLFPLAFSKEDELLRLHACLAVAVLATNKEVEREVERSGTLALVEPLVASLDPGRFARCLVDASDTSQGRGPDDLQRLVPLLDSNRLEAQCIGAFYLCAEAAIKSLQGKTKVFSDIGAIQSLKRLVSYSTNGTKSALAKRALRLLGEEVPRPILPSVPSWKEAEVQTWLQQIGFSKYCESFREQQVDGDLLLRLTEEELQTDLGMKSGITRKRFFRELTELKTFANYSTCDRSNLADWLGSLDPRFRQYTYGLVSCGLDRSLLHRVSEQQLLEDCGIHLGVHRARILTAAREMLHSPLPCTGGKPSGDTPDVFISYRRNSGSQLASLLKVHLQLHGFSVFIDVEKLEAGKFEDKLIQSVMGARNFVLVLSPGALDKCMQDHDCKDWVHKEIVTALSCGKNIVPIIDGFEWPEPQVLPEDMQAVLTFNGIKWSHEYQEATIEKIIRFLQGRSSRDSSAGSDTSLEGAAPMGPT
In words: Human SARM1 activity measurement in HEK293 cells transiently transfected with ΔN-hSARM1 (PC6 fluorescent probe). The data set is classed as cell-based. Also on record: expressed in transfected cells; host or cells: HEK293, pcDNA3 expression vector. The note with it: inhibition rate; compound 30 µM; PC6 50 µM; HEK293 cells expressing ΔN-hSARM1; approximately 48 hours from transfection; read-out: Evaluation on hSARM1 inhibitory. Summed up: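 HEK293 cells in nicotinamide-free DMEM with 5 μM nicotinamide, transiently transfected with mitochondrial-targeting-deleted ΔN-hSARM1; PC6 base-exchange fluorescent probe (50 μM) plus compound (30 μM) added ~8 h post-transfection. Fluorescence (ex 405/em 525 nm) read ~48 h from transfection; inhibition % versus transfected DMSO control, untransfected background subtracted.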

[3] abbreviates: 1 mg/kg, iv 1 mg/5 ml/kg single dose.
[4] abbreviates: 10 mg/kg, po 10 mg/10 ml/kg single dose.

`O=C(NCCCOCCOCCCNC(=O)c1cccnc1)c1cccnc1` [compound 35]: in data set [1], the “Evaluation on NAMPT inhibitory” value is “○”. In addition, in data set [2] (setting [3]), the AUC(0-inf) was found to be 234 ng·h/mL, the AUC(0-t) was 228 ng·h/mL, the C0 came to 1600 ng/mL and the half-life was 1.9 h. Also, in data set [2] (setting [3]), the clearance is 71.4 mL/min/kg and the Vd turned out to be 1.57 L/kg. Further, in data set [2] (setting [4]), the AUC(0-inf) was determined as 297 ng·h/mL, the AUC(0-t) stood at 293 ng·h/mL, the peak level (Cmax) was 501 ng/mL and the Tmax came out at 0.25 h. This compound also showed a half-life in data set [2] (setting [4]) of 1.89 h. Besides, in data set [2], the volume of distribution result is reported as “large as compared with the amount of intercellular fluid”. Besides, the inhibition at 30 µM on hSARM1 is greater than 75%.
In the case of `O=C(NCc1ccc(NC(=O)c2ccccc2)nc1)c1cccnc1` [compound 105], the “Evaluation on NAMPT inhibitory” value in data set [1] was “○”. Further, in data set [2] (setting [3]), the total exposure AUC(0-inf) was 408 ng·h/mL, the AUC(0-t) turned out to be 391 ng·h/mL, the C0 is 1050 ng/mL and the half-life was 2.81 h. In addition, in data set [2] (setting [3]), the clearance was 40.9 mL/min/kg and the Vd stood at 3.14 L/kg. For the same compound, in data set [2] (setting [4]), the total exposure AUC(0-inf) turned out to be 2420 ng·h/mL, the AUC(0-t) worked out at 2410 ng·h/mL, the Cmax stood at 2520 ng/mL and the Tmax came to 0.25 h. Also, in data set [2] (setting [4]), the half-life is 4.13 h. Also, the volume of distribution result in data set [2] was “large as compared with the amount of intercellular fluid”. Besides, the inhibition at 30 µM at hSARM1 was greater than 50%.
Regarding `CC(C)(C)C(=O)Nc1ccc(CNC(=O)c2cccnc2)cn1` [compound 76], in data set [1], the “Evaluation on NAMPT inhibitory” value is “○”. Besides, in data set [2] (setting [3]), the AUC(0-inf) was 1160 ng·h/mL, the area under the curve AUC(0-t) was determined as 1160 ng·h/mL, the C0 is 1940 ng/mL and the half-life was 1.14 h. Besides, in data set [2] (setting [3]), the clearance was 14.6 mL/min/kg and the Vd is 0.89 L/kg. Also, in data set [2] (setting [4]), the AUC(0-inf) stood at 14200 ng·h/mL, the AUC(0-t) is 14100 ng·h/mL, the Cmax was 9850 ng/mL and the Tmax was determined as 0.25 h. In data set [2] (setting [4]), this compound gave a half-life of 3.21 h. For the same compound, the BA in data set [2] (po 10 mg/10 ml/kg vs iv 1 mg/5 ml/kg, oral absorbability (bioavailability)) is recorded as 124%. The volume of distribution entry in data set [2] is “large”. Also, the inhibition at 30 µM on hSARM1 was greater than 50%.
